# Experimental data reported in patent US11266686B2, “Metal complexes and methods of treatment” (PROCYPRA THERAPEUTICS LLC, priority 2013, dated 2022).
# Tests used:
# [1] = Pharmacokinetics in mice after oral administration, plasma and brain by LC/MS/MS; details: 30 mg/kg CuXTSM API oral; for Brain AUC0-24h / Brain AUC0-inf / Brain Cmax / Brain Tmax / Brain t½ (number of time points): mouse brain; for Brain t½ (number of time points) / Plasma t½ (number of time points): bracket = number of time points; for Plasma Ke / Plasma MRT / Plasma AUC0-24h / Plasma AUC0-inf / Plasma Cmax / Plasma Tmax / Plasma t½ (number of time points): mouse plasma; for Plasma AUC0-24h / Plasma AUC0-inf / Plasma Cmax / Plasma Tmax: CuATSM in SSV, NCDs in water; for Brain:plasma-ratio (AUC-based) / Brain:plasma-ratio (Cmax-based): mouse
# Protocol: CuATSM was suspended in “Standard Suspension Vehicle” (SSV), consisting of 0.9% (w/v) NaCl, 0.5% (w/v) sodium carboxymethylcellulose, 0.5% (v/v) benzyl alcohol, and 0.4% (v/v) Tween 80 in deionized water. All other test compounds were suspended in sterile water. Samples were prepared by adding one of the compounds to the liquid vehicle (water or SSV) in a vial and then vortexing the mixture for 3 min with a stir bar inside. If the powdered sample was not completely wetted or not completely suspended, the sample was vortexed for another minute. If wetting was still incomplete, the vial was sonicated until a fully wetted suspension was obtained. Between doses, the sample was stirred on medium speed and then vortexed for an additional 20 s immediately before the next dose was removed from the vial. All dosing was completed from a single preparation of the suspension within 60 min of adding the compound to water or SSV.
# Mice were deprived of pelleted food overnight, during which time 10% dextrose, as Dextroput, was provided in tap water, after which the test items were administrated orally by gavage in water or SSV. […] The blood samples were kept on ice after sampling and centrifuged at +4° C., 1800×g for 5 min to prepare plasma. Plasma samples were extracted and transferred into pre-labelled Eppendorf test tubes (50 μl exact in one vial, and the remaining in a second vial) and frozen at −20° C. The samples were transported on dry ice to the analysis site. Following blood sampling, mice were euthanized by cervical dislocation, and then brains were collected through opened skulls. The brains were weighed and placed in test tubes and placed on water ice. Phosphate-buffered saline (PBS, pH 7.4), 4 ml per 1 g of brain tissue, was added to the test tube and brains were homogenized by using Ultra-Turrax T25 homogenizer/S25N-10G (Setting 2, 9500 rpm, approximately 10 s). The homogenate was frozen at −20° C. immediately after homogenization. The samples were transported on dry ice to the analysis site.
# Dosed mice were studied in triplicate for each of the seven time points, totaling 21 mice dosed for each studied compound. Plasma samples and brain homogenates from four untreated animals were also obtained. The plasma samples were thawed at room temperature (RT), mixed with 2-fold volume of acetonitrile, shaken and centrifuged for 10 min at 13 000×g (Heraeus Pico 17 centrifuge), after which supernatants were transferred into glass vials. The brain homogenate samples were mixed with 2-fold volume of acetonitrile:methanol, shaken, ultrasonicated for 20 min, and centrifuged for 10 min at 13 000×g (Heraeus Pico 17 centrifuge), after which supernatants were transferred into glass vials. […] Quality control (QC) samples were prepared for concentrations 10, 100 and 1000 ng/ml in plasma or brain homogenates.
# Elution was with gradient of 0.5% formic acid/acetonitrile (99:1) increased step-wise to (5:95).
# The pharmacokinetic parameters for study compounds in plasma and brain were calculated using standard non-compartmental methods. The elimination phase half-life (t½) was calculated by least-squares regression analysis of the terminal linear part of the log concentration-time curve. […] The maximum concentration (Cmax) and the time to Cmax (Tmax) were derived directly from the concentration data. Mean Residence Time, MRT, and elimination rate constant, Ke, were also calculated from the concentration vs. time data of plasma samples.
# [2] = Kinetic solubility determination (μDISS Profiler, in situ fiber optic UV); details: for dissolved CuATSM as share of the total available in the assay: gluconic acid NCD at the 0.3 hour time point
# Protocol: Solubility assays were performed in 25 mL glass vials. Glass vials (4-mL, capped, VWR) were used to prepare stock solutions. All experiments were conducted using μDISS Profiler™ operated by μDISS Command Software (version 5.0.1.0). MB-8 mini-water bath with built-in stirring device was used to provide stirring during solubility measurements. Temperature during experiments was maintained at 25±2° C., and were performed in duplicate.
# An HCl/KCl based buffer at pH 1.2 and a simulated intestinal fluid at pH 6.8 (no pancreatin) were prepared according USP protocols (Vol 35/NF30). […] The concentration measurements are performed directly in the dissolution media, with processed results plotted in real time using the μDISS Profiler™ (Pion) instrument. The Profiler uses an in situ fiber optic-dip probe UV apparatus, with the probe center-positioned in the vial holding the studied compounds and 10-20 mL of media. Interference due to background turbidity was minimized when needed by a spectral second derivative method (Avdeef, A; Tsinman, O. “Miniaturized Rotating Disk Intrinsic Dissolution Rate Measurement: Effects of Buffer Capacity in Comparisons to Traditional Wood's Apparatus”, Pharm. Res., 2008, DOI: 10.1007/s11095-008-96-79-z).
# The 2 and 20 mm path length tips were selected for detecting the concentration of CuATSM at pH 1.2 and pH 6.8 respectively. A dry CuATSM powder was dissolved in DMSO resulting a stock solution at known concentration, and then the solution was used to generate standard curves by serial addition. Standard curves were determined from the area under the second derivative curve in wavelength range 340-366 nm (for pH 1.2) and 445-465 nm (for pH 6.8) so as to avoid over saturation of the UV signal.
# The solubility of CuATSM was determined in pH 6.8 buffer. Samples of CuATSM were introduced into pH 6.8 buffer as powders, thus, unlike for standards, the final solutions contained no solvents in the background. The 20 mm (at pH 6.8) path length tip was selected for detecting the concentration of CuATSM in solution. All experiments were performed at room temperature 25±3° C.
# The 20 mm pathlength tip was selected for detecting the concentration of the compounds in pH 6.8 buffer solution. All experiments were performed at room temperature, 25±3° C., and were performed in duplicate.
# Kinetic solubility determination of CuATSM:saccharin (1:2). CuATSM:saccharin (1:2) was prepared according to the methods of EXAMPLE 3. The kinetic solubility profile of CuATSM:saccharin (1:2) was determined in pH 6.8 buffer similarly to the methods given in EXAMPLE 13 and EXAMPLE 14. Standard curves of CuATSM:saccharin (1:2) and saccharin were generated and compared to the standard curves of CuATSM. Saccharin concentrations in the buffer solution were determined from the saccharin standard curves in the 292-310 nm wavelength region, using the Zero Intercept Method so as to minimize spectral interference from CuATSM. […] The upper concentration limit of the assay was approximately 0.12 mg/mL of CuATSM:saccharin (1:2), resulting in upper concentrations limits for CuATSM and for saccharin in solution approximately 60 μg/mL each. All experiments were performed at about 25±3° C., and were performed in duplicate.
# [3] = pH 6.8 buffer, powder added, 25±3° C., 12-hour monitoring
Compound,Brain AUC0-24h [1],Brain AUC0-inf [1],Brain Cmax [1],Brain Tmax [1],Brain t½ (number of time points) [1],Plasma Ke [1],Plasma MRT [1],Plasma AUC0-24h [1],Plasma AUC0-inf [1],Plasma Cmax [1],Plasma Tmax [1],Plasma t½ (number of time points) [1],Brain:plasma-ratio (AUC-based) [1],Brain:plasma-ratio (Cmax-based) [1],"time to maximum concentration of CuATSM ([2]; pH 6.8 buffer, 25±3° C.)","maximum concentration of CuATSM in solution [2, 3]",dissolved CuATSM as share of the total available in the assay ([2]; pH 6.8 buffer),also measured
"CNC1=NN=C(C)C(C)=NN=C(NC)[S][Cu][S]1 [CuATSM, Copper(II) diacetyl-di(N4-methyl)thiosemicarbazone, reference compound]",10944 ng·min/g,13843 ng·min/g,28.4 ng/g,1 h,199 (3) min,0.0035 min⁻¹,5.25 h,9637 ng·min/mL,9698 ng·min/mL,22.2 ng/mL,2 h,196 (4) min,1.1,1.3,–,–,–,concentration of CuATSM at the end of the 12-hour monitoring period ([2]; pH 6.8): remained at that concentration; time to maximum concentration of CuATSM ([2]; pH 6.8): approximately 8 hours
CNC1=NN=C(C)C(C)=NN=C(NC)[S][Cu][S]1.O=C(O)C(O)C(O)C(O)C(O)CO.O=C(O)C(O)C(O)C(O)C(O)CO [CuATSM:gluconic acid (1:2)],71554 ng·min/g,73544 ng·min/g,133 ng/g,4 h,261 (3) min,0.0028 min⁻¹,5.95 h,25 163 min*ng/mL,25696 ng·min/mL,36.5 ng/mL,4 h,252 (3) min,2.8,3.6,≤ 0.11 h,approximately 3 μg/mL,less than 1%,"solubility in DMSO (did not fully dissolve at) ([2]; DMSO stock solution): < 400 µg/mL; time to maximum concentration of CuATSM ([2]; pH 1.2 KCl/HCl buffer): ≤ 0.3 h; maximum concentration of CuATSM in solution ([2]; pH 1.2 KCl/HCl buffer, 3-hour monitoring): approximately 195 μg/mL; dissolved CuATSM as share of the total amount of CuATSM in the sample ([2]; pH 1.2 buffer, within 0.3 hours, kept for 3 hours): 33%; change in the chemical identity of CuATSM after dissolution (UV spectral shifts) ([2]; pH 6.8 buffer, 450 nm shifted to 415 nm within the first 0.3 hours): reaction or decomposition"
CNC1=NN=C(C)C(C)=NN=C(NC)[S][Cu][S]1.O=C1NS(=O)(=O)c2ccccc21.O=C1NS(=O)(=O)c2ccccc21 [CuATSM:saccharin (1:2)],30643 ng·min/g,30979 ng·min/g,71.8 ng/g,0.25 h,202 (2) min,0.0040 min⁻¹,6.25 h,20 333 min*ng/mL,20436 ng·min/mL,29.0 ng/mL,2 h,170 (2) min,1.5,2.5,≤ 0.8 h,approximately 2 μg/mL,less than 1%,"time to maximum concentration of saccharin ([2]; pH 6.8 buffer): ≤ 0.3 h; concentration of CuATSM at the end of the 12-hour monitoring period ([2]; pH 6.8 buffer, 25±3° C.): approximately 1 μg/mL; maximum concentration of saccharin in solution ([2]; pH 6.8 buffer, unchanged over the 12-hour monitoring period): approximately 60 μg/mL"
